Experimental data taken from the supplement of paper PMC10307832.

Tests used:
Experiment in all cases: relative viability (nuclei count vs DMSO), 5 days (fraction); higher = more cells survive
HCC-827 = tested on: HCC-827
How it was run: (§1)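 For relative viability, nuclei counts in treated wells were divided by those in vehicle wells. Lung cancer cell lines had been pin-tool dosed in 1536-well plates the day after seeding and cultured for 5 days, then fixed and stained in one step (final 0.05% Triton X-100, 1% formaldehyde, 1 ug/ml Hoechst) and imaged at 4×. Doses were one drug alone or a fixed anchor-drug dose plus five library-drug doses (not always all listed) in √10 steps, and values are duplicate-plate medians.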

RERF-LC-KJ = tested on: RERF-LC-KJ
How it was run: as §1

NCI-H661 = tested on: NCI-H661
How it was run: as §1

NCI-H441 = tested on: NCI-H441
How it was run: as §1

EKVX = tested on: EKVX
How it was run: as §1

NCI-H1734 = tested on: NCI-H1734
How it was run: as §1

NCI-H1915 = tested on: NCI-H1915
How it was run: as §1

NCI-H1650 = tested on: NCI-H1650
How it was run: as §1

NCI-H2347 = tested on: NCI-H2347
How it was run: as §1

PC-3 [JPC-3] = tested on: PC-3 [JPC-3]
How it was run: as §1

COR-L 105 = tested on: COR-L 105
How it was run: as §1

201T = tested on: 201T
How it was run: as §1

LU99A = tested on: LU99A
How it was run: as §1

LC-2-ad = tested on: LC-2-ad
How it was run: as §1

SW 900 = tested on: SW 900
How it was run: as §1

COR-L23 = tested on: COR-L23
How it was run: as §1

LK-2 = tested on: LK-2
How it was run: as §1

BEN = tested on: BEN
How it was run: as §1

HCC-366 = tested on: HCC-366
How it was run: as §1

HCC-15 = tested on: HCC-15
How it was run: as §1

HCC-78 = tested on: HCC-78
How it was run: as §1

NCI-H1944 = tested on: NCI-H1944
How it was run: as §1

NCI-H1755 = tested on: NCI-H1755
How it was run: as §1

NCI-H1648 = tested on: NCI-H1648
How it was run: as §1

Compound `C=C1C(=O)O[C@@H](CCCCCCCC)[C@@H]1C(=O)O` [C-75] + Nc1ncn([C@H]2C[C@H](O)[C@@H](CO)O2)c(=O)n1 [Decitabine] (partner 2 µM) has a relative viability (HCC-827; first compound 0.253 µM) of 0.333, a relative viability (HCC-827; first compound 0.8 µM) of 0.277 and a relative viability (HCC-827; first compound 8 µM) of 0.262. For the same compound, the relative viability (RERF-LC-KJ; first compound 0.08 µM) was 0.682, the relative viability (RERF-LC-KJ; first compound 0.253 µM) was 0.848 and the relative viability (RERF-LC-KJ; first compound 0.8 µM) was 0.613. For the same compound, the relative viability (RERF-LC-KJ; first compound 2.53 µM) was 0.568, the relative viability (RERF-LC-KJ; first compound 8 µM) was 0.605 and the relative viability (NCI-H661; first compound 0.08 µM) was 0.545. The relative viability (NCI-H661; first compound 0.253 µM) was 0.54, the relative viability (NCI-H661; first compound 0.8 µM) was 0.519 and the relative viability (NCI-H661; first compound 2.53 µM) was 0.41. It also gave a relative viability (NCI-H661; first compound 8 µM) of 0.448, a relative viability (NCI-H441; first compound 0.08 µM) of 0.299 and a relative viability (NCI-H441; first compound 0.253 µM) of 0.23. The relative viability (NCI-H441; first compound 0.8 µM) was 0.287, the relative viability (NCI-H441; first compound 8 µM) was 0.212 and the relative viability (EKVX; first compound 0.08 µM) was 0.399. It also gave a relative viability (EKVX; first compound 0.253 µM) of 0.397, a relative viability (EKVX; first compound 0.8 µM) of 0.336 and a relative viability (EKVX; first compound 8 µM) of 0.325. The relative viability (NCI-H1734; first compound 0.08 µM) was 0.516, the relative viability (NCI-H1734; first compound 0.253 µM) was 0.589 and the relative viability (NCI-H1734; first compound 0.8 µM) was 0.457. It also gave a relative viability (NCI-H1734; first compound 2.53 µM) of 0.264, a relative viability (NCI-H1734; first compound 8 µM) of 0.448 and a relative viability (NCI-H1915; first compound 0.08 µM) of 0.254. It also gave a relative viability (NCI-H1915; first compound 0.253 µM) of 0.24, a relative viability (NCI-H1915; first compound 0.8 µM) of 0.296 and a relative viability (NCI-H1915; first compound 2.53 µM) of 0.24. The relative viability (NCI-H1915; first compound 8 µM) was 0.225, the relative viability (NCI-H1650; first compound 0.08 µM) was 0.362 and the relative viability (NCI-H1650; first compound 0.253 µM) was 0.384. It also gave a relative viability (NCI-H1650; first compound 0.8 µM) of 0.453, a relative viability (NCI-H1650; first compound 8 µM) of 0.387 and a relative viability (NCI-H2347; first compound 0.08 µM) of 0.673. It also gave a relative viability (NCI-H2347; first compound 0.253 µM) of 0.626, a relative viability (NCI-H2347; first compound 0.8 µM) of 0.653 and a relative viability (NCI-H2347; first compound 2.53 µM) of 0.572. The relative viability (NCI-H2347; first compound 8 µM) was 0.659, the relative viability (PC-3 [JPC-3]; first compound 0.08 µM) was 0.78 and the relative viability (PC-3 [JPC-3]; first compound 0.253 µM) was 0.798. It also gave a relative viability (PC-3 [JPC-3]; first compound 0.8 µM) of 0.782, a relative viability (PC-3 [JPC-3]; first compound 2.53 µM) of 0.793 and a relative viability (PC-3 [JPC-3]; first compound 8 µM) of 0.91. It also gave a relative viability (COR-L 105; first compound 0.08 µM) of 0.7, a relative viability (COR-L 105; first compound 0.253 µM) of 0.685 and a relative viability (COR-L 105; first compound 0.8 µM) of 0.582. It also gave a relative viability (COR-L 105; first compound 2.53 µM) of 0.477, a relative viability (COR-L 105; first compound 8 µM) of 0.606 and a relative viability (201T; first compound 0.08 µM) of 0.844. For the same compound, the relative viability (201T; first compound 0.253 µM) was 0.938, the relative viability (201T; first compound 0.8 µM) was 0.842 and the relative viability (201T; first compound 2.53 µM) was 0.627. It also gave a relative viability (201T; first compound 8 µM) of 0.813, a relative viability (LU99A; first compound 0.08 µM) of 0.831 and a relative viability (LU99A; first compound 0.253 µM) of 0.78. For the same compound, the relative viability (LU99A; first compound 0.8 µM) was 0.841, the relative viability (LU99A; first compound 2.53 µM) was 0.83 and the relative viability (LU99A; first compound 8 µM) was 0.79. The relative viability (LC-2-ad; first compound 0.08 µM) was 0.785, the relative viability (LC-2-ad; first compound 0.253 µM) was 0.809 and the relative viability (LC-2-ad; first compound 0.8 µM) was 0.755. For the same compound, the relative viability (LC-2-ad; first compound 2.53 µM) was 0.771, the relative viability (LC-2-ad; first compound 8 µM) was 0.837 and the relative viability (SW 900; first compound 0.08 µM) was 0.413. The relative viability (SW 900; first compound 0.253 µM) was 0.489, the relative viability (SW 900; first compound 0.8 µM) was 0.46 and the relative viability (SW 900; first compound 2.53 µM) was 0.401. It also gave a relative viability (SW 900; first compound 8 µM) of 0.403, a relative viability (COR-L23; first compound 0.08 µM) of 0.483 and a relative viability (COR-L23; first compound 0.253 µM) of 0.486. It also gave a relative viability (COR-L23; first compound 0.8 µM) of 0.415, a relative viability (COR-L23; first compound 2.53 µM) of 0.459 and a relative viability (COR-L23; first compound 8 µM) of 0.396. The relative viability (LK-2; first compound 0.08 µM) was 0.309, the relative viability (LK-2; first compound 0.253 µM) was 0.374 and the relative viability (LK-2; first compound 0.8 µM) was 0.306. It also gave a relative viability (LK-2; first compound 2.53 µM) of 0.232, a relative viability (LK-2; first compound 8 µM) of 0.271 and a relative viability (BEN; first compound 0.08 µM) of 0.764. The relative viability (BEN; first compound 0.253 µM) was 0.733, the relative viability (BEN; first compound 0.8 µM) was 0.654 and the relative viability (BEN; first compound 2.53 µM) was 0.738. The relative viability (BEN; first compound 8 µM) was 0.713, the relative viability (HCC-366; first compound 0.08 µM) was 0.357 and the relative viability (HCC-366; first compound 0.253 µM) was 0.361. It also gave a relative viability (HCC-366; first compound 0.8 µM) of 0.385, a relative viability (HCC-366; first compound 2.53 µM) of 0.344 and a relative viability (HCC-366; first compound 8 µM) of 0.289. It also gave a relative viability (HCC-15; first compound 0.08 µM) of 0.691, a relative viability (HCC-15; first compound 0.253 µM) of 0.636 and a relative viability (HCC-15; first compound 0.8 µM) of 0.551. It also gave a relative viability (HCC-15; first compound 2.53 µM) of 0.543, a relative viability (HCC-15; first compound 8 µM) of 0.626 and a relative viability (HCC-78; first compound 0.08 µM) of 0.693. The relative viability (HCC-78; first compound 0.253 µM) was 0.676, the relative viability (HCC-78; first compound 0.8 µM) was 0.72 and the relative viability (HCC-78; first compound 8 µM) was 0.667. For the same compound, the relative viability (NCI-H1944; first compound 0.08 µM) was 0.423, the relative viability (NCI-H1944; first compound 0.253 µM) was 0.471 and the relative viability (NCI-H1944; first compound 0.8 µM) was 0.35. It also gave a relative viability (NCI-H1944; first compound 2.53 µM) of 0.368, a relative viability (NCI-H1944; first compound 8 µM) of 0.461 and a relative viability (NCI-H1755; first compound 0.08 µM) of 0.683. For the same compound, the relative viability (NCI-H1755; first compound 0.253 µM) was 0.713, the relative viability (NCI-H1755; first compound 0.8 µM) was 0.684 and the relative viability (NCI-H1755; first compound 2.53 µM) was 0.646. It also gave a relative viability (NCI-H1755; first compound 8 µM) of 0.681, a relative viability (NCI-H1648; first compound 0.08 µM) of 0.487 and a relative viability (NCI-H1648; first compound 0.253 µM) of 0.671. For the same compound, the relative viability (NCI-H1648; first compound 0.8 µM) was 0.473 and the relative viability (NCI-H1648; first compound 8 µM) was 0.492.
